In patent publication US8828678B2, “Self-immolative probes for enzyme activity detection” (Enzo Life Sciences, Inc., priority 2010, dated 2014):

Assay: Chemical reduction of CD-8 and enzymatic (HRP) luminescence testing of the reduction product
Details: 200 μM CD-8, 1 mM sodium hydrosulfite, 1 hour room temperature, then H2O2, 4-iodophenol
Method: 100 μl of 200 μM CD-8 (dissolved in 1×PBS buffer) with (1 mM) or without sodium hydrosulfite was incubated in a 96 black microplate (Greiner®) at room temperature for 1 hour. Also included was a positive control of 100 μl of 50 μM of isoluminol dissolved in 1×PBS buffer. A 4:1 volumetric mixture (1.25 μL) of stabilized H2O2 (Roche Diagnotics GmbH: Reference number: 11 582 950 001, component 2) and 200 mM of 4-idophenol was then added. Before adding horseradish peroxidase (HRP), the background luminescence was recorded; after adding 2 μL of 50 μM HRP, the luminescence was immediately recorded on a Biotek® plate reader.

O=C(Nc1ccc2c(=O)[nH][nH]c(=O)c2c1)OCc1ccc([N+](=O)[O-])cc1 [CD-8]
luminescence / release of isoluminol after sodium hydrosulfite: triggering the self-immolative release of isoluminol
